Where two headings read alike, the source gives them in different places.
Key:
recombinant mTOR = recombinant mTOR (Homo sapiens (Human), UniProt P42345); test: mTOR inhibition assay (radiometric or LanthaScreen TR-FRET); assay type: biochemical; conditions: read-out: MTORC IC50
Protocol: The compounds described herein can be tested against recombinant mTOR (Invitrogen) in an assay containing 50 mM HEPES, pH 7.5, 1 mM EGTA, 10 mM MgCl2, 2.5 mM, 0.01% Tween, 10 pM ATP (2.5 μCi of μ-32P-ATP), and 3 μg/mL BSA. R^at recombinant PHAS-1/4EBP1 (Calbiochem; 2 mg/mL) is used as a substrate. Reactions are terminated by spotting onto nitrocellulose, which is washed with 1M NaCl/1% phosphoric acid (approximately 6 times, 5-10 minutes each). Sheets are dried and the transferred radioactivity quantitated by phosphorimaging.
For instance, one can use Invitrogen's LanthaScreen™ Kinase assay to test the inhibitors of mTOR disclosed herein. This assay is a time resolved FRET platform that measures the phosphorylation of GFP labeled 4EBP1 by mTOR kinase. The kinase reaction is performed in a white 384 well microtitre plate. The total reaction volume is 20 ul per well and the reaction buffer composition is 50 mM HEPES pH7.5, 0.01% Polysorbate 20, 1 mM EGTA, 10 mM MnCl2, and 2 mM DTT. In the first step, each well receives 2 ul of test compound in 20% dimethylsulphoxide resulting in a 2% DMSO final concentration. Next, 8 ul of mTOR diluted in reaction buffer is added per well for a 60 ng/ml final concentration. To start the reaction, 10 ul of an ATP/GFP-4EBP1 mixture (diluted in reaction buffer) is added per well for a final concentration of 10 μM ATP and 0.5 μM GFP-4EBP1. The plate is sealed and incubated for 1 hour at room temperature. […] The plate is sealed, incubated for 1 hour at room temperature, and then read on a plate reader set up for LanthaScreen™ TR-FRET. Data is analyzed and IC50s are generated using GraphPad Prism 5.

p110β/p85α = p110β/p85α (Homo sapiens (Human), UniProt P42338); test: PI 3-Kinase (human) HTRF assay, p110β/p85α; assay type: biochemical; conditions: read-out: PI3K β IC50
p110γ = p110γ (Homo sapiens (Human), UniProt P48736); test: PI 3-Kinase (human) HTRF assay, p110γ; assay type: biochemical; conditions: read-out: PI3K γ IC50
Protocol: An exemplary system is PI 3-Kinase (human) HTRF™ Assay from Upstate. […] Briefly, the assay is a time resolved FRET assay that indirectly measures PIP3 product formed by the activity of a PI3-K. The kinase reaction is performed in a microtitre plate (e.g., a 384 well microtitre plate). The total reaction volume is approximately 20 ul per well. In the first step, each well receives 2 ul of test compound in 20% dimethylsulphoxide resulting in a 2% DMSO final concentration. Next, approximately 14.5 ul of a kinase/PIP2 mixture (diluted in 1× reaction buffer) is added per well for a final concentration of 0.25-0.3 ug/ml kinase and 10 μM PIP2. The plate is sealed and incubated for 15 minutes at room temperature. To start the reaction, 3.5 ul of ATP (diluted in 1× reaction buffer) is added per well for a final concentration of 10 μM ATP. The plate is sealed and incubated for 1 hour at room temperature. The reaction is stopped by adding 5 ul of Stop Solution per well and then 5 ul of Detection Mix is added per well. The plate is sealed, incubated for 1 hour at room temperature, and then read on an appropriate plate reader. Data is analyzed and IC50s are generated using GraphPad Prism 5. […] For PI3K α, β, δ, and γ, the nM concentration of inhibitor to reach IC50 is provided.

p110α/p85α = p110α/p85α (Homo sapiens (Human), UniProt P42336); test: PI 3-Kinase (human) HTRF assay, p110α/p85α; assay type: biochemical; conditions: read-out: PI3K α IC50
p110δ/p85α = p110δ/p85α (Homo sapiens (Human), UniProt O00329); test: PI 3-Kinase (human) HTRF assay, p110δ/p85α; assay type: biochemical; conditions: read-out: PI3K δ IC50
[1] = tested on: tumor cells with a PI3Kα mutation (e.g., MDA-MB-361 and T47D); test: Proliferation of tumor cells with PI3Kα mutation; assay type: cell-based; conditions: Homo sapiens, T47D cells
[2] = read-out: T47D proliferation IC50

p110γ, sequence (P48736 whole entry): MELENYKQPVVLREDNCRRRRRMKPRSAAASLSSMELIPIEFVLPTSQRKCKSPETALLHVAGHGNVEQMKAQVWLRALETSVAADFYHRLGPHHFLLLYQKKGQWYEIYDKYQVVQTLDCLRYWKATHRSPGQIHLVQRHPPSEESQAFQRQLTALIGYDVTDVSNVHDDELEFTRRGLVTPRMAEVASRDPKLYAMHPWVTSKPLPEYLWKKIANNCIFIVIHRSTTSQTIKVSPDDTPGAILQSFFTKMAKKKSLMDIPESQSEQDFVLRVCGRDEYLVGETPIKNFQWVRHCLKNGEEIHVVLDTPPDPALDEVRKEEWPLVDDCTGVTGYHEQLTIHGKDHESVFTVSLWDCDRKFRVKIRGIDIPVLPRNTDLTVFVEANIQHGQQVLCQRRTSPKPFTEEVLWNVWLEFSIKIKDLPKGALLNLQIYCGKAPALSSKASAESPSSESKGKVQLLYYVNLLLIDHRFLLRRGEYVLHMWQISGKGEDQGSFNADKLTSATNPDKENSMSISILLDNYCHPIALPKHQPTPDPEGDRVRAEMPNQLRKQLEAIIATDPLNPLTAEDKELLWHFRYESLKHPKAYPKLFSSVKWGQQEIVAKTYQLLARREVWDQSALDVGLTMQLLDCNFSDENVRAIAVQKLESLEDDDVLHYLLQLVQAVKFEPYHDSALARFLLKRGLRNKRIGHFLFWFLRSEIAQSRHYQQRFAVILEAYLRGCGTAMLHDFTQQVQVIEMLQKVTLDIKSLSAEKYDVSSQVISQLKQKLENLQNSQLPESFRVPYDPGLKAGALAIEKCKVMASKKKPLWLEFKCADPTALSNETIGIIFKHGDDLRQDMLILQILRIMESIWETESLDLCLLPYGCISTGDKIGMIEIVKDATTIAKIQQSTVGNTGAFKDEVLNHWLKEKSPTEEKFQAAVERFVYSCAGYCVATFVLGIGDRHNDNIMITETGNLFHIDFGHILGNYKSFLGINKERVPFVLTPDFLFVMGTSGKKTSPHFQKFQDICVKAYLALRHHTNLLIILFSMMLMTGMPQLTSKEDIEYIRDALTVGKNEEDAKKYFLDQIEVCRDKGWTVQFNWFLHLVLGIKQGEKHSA
p110δ/p85α, sequence (O00329 whole entry): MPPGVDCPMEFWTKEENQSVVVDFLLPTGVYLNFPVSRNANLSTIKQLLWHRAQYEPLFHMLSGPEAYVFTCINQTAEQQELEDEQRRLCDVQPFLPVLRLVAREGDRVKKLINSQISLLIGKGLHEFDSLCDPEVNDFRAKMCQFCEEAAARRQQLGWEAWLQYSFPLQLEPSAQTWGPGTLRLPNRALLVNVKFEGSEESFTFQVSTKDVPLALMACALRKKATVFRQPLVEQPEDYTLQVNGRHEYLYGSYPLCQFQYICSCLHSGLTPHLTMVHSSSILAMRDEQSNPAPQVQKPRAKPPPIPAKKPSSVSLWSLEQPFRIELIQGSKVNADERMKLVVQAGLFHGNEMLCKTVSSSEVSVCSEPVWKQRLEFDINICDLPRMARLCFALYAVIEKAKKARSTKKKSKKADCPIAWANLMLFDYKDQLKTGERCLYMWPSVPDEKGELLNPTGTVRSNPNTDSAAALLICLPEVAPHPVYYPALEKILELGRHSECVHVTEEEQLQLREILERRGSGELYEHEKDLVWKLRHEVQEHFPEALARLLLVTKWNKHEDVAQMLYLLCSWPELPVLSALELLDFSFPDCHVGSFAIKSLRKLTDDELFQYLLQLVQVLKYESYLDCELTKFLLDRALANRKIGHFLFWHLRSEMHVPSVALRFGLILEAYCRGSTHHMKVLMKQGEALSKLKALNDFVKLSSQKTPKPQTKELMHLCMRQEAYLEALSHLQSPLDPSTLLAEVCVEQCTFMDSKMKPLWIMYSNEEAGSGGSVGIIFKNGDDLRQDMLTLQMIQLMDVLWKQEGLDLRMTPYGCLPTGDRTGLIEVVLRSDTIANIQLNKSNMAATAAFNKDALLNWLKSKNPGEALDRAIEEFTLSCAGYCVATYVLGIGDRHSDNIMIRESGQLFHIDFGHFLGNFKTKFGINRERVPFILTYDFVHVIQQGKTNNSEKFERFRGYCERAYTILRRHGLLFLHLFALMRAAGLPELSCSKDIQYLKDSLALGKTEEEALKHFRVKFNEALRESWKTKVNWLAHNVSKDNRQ
p110δ/p85α, sequence (P27986 whole entry partner): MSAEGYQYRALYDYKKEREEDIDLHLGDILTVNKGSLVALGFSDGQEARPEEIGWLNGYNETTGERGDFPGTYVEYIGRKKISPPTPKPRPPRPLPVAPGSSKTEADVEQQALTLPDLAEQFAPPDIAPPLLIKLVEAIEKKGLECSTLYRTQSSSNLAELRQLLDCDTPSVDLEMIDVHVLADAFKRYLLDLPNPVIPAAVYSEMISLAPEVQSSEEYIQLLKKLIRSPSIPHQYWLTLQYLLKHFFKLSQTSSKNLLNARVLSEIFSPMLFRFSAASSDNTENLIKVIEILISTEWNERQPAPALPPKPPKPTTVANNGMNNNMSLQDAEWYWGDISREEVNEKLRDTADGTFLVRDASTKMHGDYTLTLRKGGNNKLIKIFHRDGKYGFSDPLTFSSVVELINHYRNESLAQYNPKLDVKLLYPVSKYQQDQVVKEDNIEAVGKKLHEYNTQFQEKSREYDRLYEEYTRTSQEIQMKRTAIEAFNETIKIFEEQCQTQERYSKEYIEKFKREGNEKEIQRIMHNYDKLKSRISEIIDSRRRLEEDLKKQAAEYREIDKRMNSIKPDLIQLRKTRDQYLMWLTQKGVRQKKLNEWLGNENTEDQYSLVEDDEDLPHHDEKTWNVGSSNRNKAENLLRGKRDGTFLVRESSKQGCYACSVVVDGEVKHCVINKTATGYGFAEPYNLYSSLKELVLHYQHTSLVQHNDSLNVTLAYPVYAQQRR
recombinant mTOR, sequence (P42345 1360-2549): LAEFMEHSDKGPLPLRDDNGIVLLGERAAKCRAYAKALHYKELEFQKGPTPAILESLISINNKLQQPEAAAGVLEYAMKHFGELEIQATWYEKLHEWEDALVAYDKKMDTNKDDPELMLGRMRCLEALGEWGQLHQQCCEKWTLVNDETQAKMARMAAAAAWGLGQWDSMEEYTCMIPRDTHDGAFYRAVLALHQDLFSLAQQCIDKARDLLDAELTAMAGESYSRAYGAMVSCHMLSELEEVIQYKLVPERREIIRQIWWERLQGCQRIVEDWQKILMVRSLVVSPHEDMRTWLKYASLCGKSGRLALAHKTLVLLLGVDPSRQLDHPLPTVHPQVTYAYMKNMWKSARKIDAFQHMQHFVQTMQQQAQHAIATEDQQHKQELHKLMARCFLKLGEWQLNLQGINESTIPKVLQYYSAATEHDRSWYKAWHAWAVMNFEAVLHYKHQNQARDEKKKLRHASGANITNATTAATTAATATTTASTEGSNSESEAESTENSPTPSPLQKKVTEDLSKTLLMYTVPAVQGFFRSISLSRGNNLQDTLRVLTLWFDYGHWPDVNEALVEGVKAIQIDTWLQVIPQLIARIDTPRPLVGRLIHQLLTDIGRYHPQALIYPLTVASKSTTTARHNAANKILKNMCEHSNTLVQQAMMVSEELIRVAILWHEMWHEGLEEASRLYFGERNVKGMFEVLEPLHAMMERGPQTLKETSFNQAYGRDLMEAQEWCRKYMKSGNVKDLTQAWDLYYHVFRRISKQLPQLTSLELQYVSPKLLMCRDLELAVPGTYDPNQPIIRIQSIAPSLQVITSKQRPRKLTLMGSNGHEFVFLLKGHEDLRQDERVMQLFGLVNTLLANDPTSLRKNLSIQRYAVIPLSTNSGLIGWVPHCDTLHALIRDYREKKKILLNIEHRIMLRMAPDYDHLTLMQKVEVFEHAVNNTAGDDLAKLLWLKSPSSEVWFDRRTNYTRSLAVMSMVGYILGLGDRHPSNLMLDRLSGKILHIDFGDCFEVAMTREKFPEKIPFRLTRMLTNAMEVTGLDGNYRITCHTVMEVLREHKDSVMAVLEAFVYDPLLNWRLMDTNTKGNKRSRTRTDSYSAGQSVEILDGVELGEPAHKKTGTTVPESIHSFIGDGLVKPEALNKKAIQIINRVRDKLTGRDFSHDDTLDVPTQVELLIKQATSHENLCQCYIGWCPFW

Structure (SMILES) | IC50 (recombinant mTOR) | IC50 (p110β/p85α; in vitro) | IC50 (p110γ; in vitro) | IC50 (recombinant mTOR; in vitro) | IC50 (p110α/p85α; in vitro) | IC50 (p110δ/p85α; in vitro) | IC50 (p110γ) | IC50 (p110α/p85α) | IC50 (p110δ/p85α) | IC50 [1, 2] | IC50 (p110β/p85α) | IC50 ([1]; read-out: T47D proliferation)
N#Cc1cnc2ccc(-c3ccc4oc(N)nc4c3)cc2c1Cl [compound 77] | < 1 µM |  |  |  |  |  |  |  |  |  |  | 
Nc1nc2cc(-c3ccc4ncc(N5CC(n6cccn6)C5)nc4c3)ccc2o1 [compound 318] |  | < 10 µM | < 1 µM | < 1 µM | < 0.1 µM |  |  |  |  |  |  | 
CC1(C)CN(C2CN(c3cnc4ccc(-c5ccc6oc(N)nc6c5)cc4n3)C2)CCN1 [compound 388] |  | < 1 µM | < 1 µM | < 0.1 µM | < 0.1 µM | < 1 µM |  |  |  |  |  | 
Nc1nc2cc(-c3ccc4ncc(N5CCNC(C(F)(F)F)C5)nc4c3)ccc2o1 (stereo not shown) [compound 384] |  | < 1 µM | < 1 µM | < 1 µM | < 0.1 µM | < 10 µM |  |  |  |  |  | 
N#Cc1cnc2ccc(-c3ccc4oc(N)nc4c3)cc2c1 [compound 93] | < 10 µM |  |  |  |  |  | < 1 µM | < 1 µM |  |  |  | 
CS(=O)(=O)N1CCN(C2CCN(c3cnc4ccc(-c5ccc6oc(N)nc6c5)cc4n3)CC2)CC1 [compound 377] |  | < 10 µM | < 1 µM | < 10 µM | < 0.1 µM | < 10 µM |  |  |  |  |  | 
Nc1nc2cc(-c3nc(N4CCOCC4)c4cnn(C5CCNCC5)c4n3)ccc2o1 [compound 348] |  | < 0.1 µM | < 1 µM | < 1 µM | < 1 µM | < 10 µM |  |  |  |  |  | 
Nc1nc2ccc(-c3ccc4nccc(-c5ccncc5)c4c3)cc2s1 [compound 3] | < 1 µM |  |  |  |  |  | < 1 µM | < 0.1 µM | < 1 µM |  |  | 
Nc1nc2cc(-c3ccc4nc(N)oc4c3)ccc2o1 [compound 241] |  |  | < 0.1 µM | < 10 µM | < 1 µM | < 1 µM |  |  |  |  |  | 
Nc1nc2cc(-c3ccc4ncc(C(=O)N5CC[C@@H](O)C5)n4c3)ccc2o1 [compound 265] |  | < 10 µM | < 0.1 µM |  | < 0.1 µM | < 10 µM |  |  |  | < 1 µM |  | 
CN(C)[C@@H]1CCN(c2cnc3ccc(-c4ccc5oc(N)nc5c4)cc3n2)C1 [compound 378] |  | < 0.1 µM | < 10 µM | < 1 µM | < 0.1 µM | < 10 µM |  |  |  |  |  | 
Nc1nc2cc(-c3ccc4ncc(-c5ccnc(N6CCOCC6)c5)n4c3)ccc2o1 [compound 52] | < 10 µM |  |  |  |  |  | < 0.1 µM | < 0.1 µM | < 0.1 µM |  |  | 
Nc1ccc2cc(-c3ccc4nccc(-c5ccncc5)c4c3)ccc2n1 [compound 5] | < 1 µM |  |  |  |  |  | < 1 µM | < 1 µM | < 10 µM |  |  | 
C[C@@H]1CN(c2cnc3ccc(-c4ccc5oc(N)nc5c4)cc3n2)CCN1 [compound 179] |  |  |  |  |  |  | < 10 µM | < 0.1 µM | < 10 µM |  | < 1 µM | < 10 µM
Nc1noc2cc(-c3ccc4nccc(-c5ccncc5)c4c3)ccc12 [compound 16] |  |  |  |  |  |  | < 1 µM | < 0.1 µM | < 10 µM |  | < 10 µM | < 1 µM
CC(=O)N1CCC(Nc2ncnc3ccc(-c4ccc5oc(N)nc5c4)cc23)CC1 [compound 60] | < 1 µM |  |  |  |  |  | < 0.1 µM | < 0.1 µM | < 1 µM |  | < 10 µM | 
Nc1nc2cc(-c3ccc4ncc(N5CCN(C(=O)[C@H](N)CO)CC5)nc4c3)ccc2o1 [compound 299] |  | < 1 µM | < 0.1 µM |  | < 0.1 µM | < 0.1 µM |  |  |  | < 1 µM |  | 
Nc1nc2cc(-c3ccc4ncc(-c5cccnc5)nc4c3)ccc2o1 [compound 76] | < 10 µM |  |  |  |  |  | < 1 µM | < 0.1 µM |  |  |  | < 10 µM
CN1CC(C(=O)N2CCN(c3cnc4ccc(-c5ccc6oc(N)nc6c5)cc4n3)CC2)C1 [compound 156] |  |  |  |  |  |  | < 1 µM | < 0.1 µM | < 1 µM |  | < 1 µM | < 1 µM
CC(C)N1CCN(C(=O)C2CN(c3cnc4ccc(-c5ccc6oc(N)nc6c5)cc4n3)C2)CC1 [compound 285] |  | < 10 µM | < 1 µM |  | < 0.1 µM | < 1 µM |  |  |  | < 1 µM |  | 
CCN1CCN(c2cnc3ccc(-c4ccc5oc(N)nc5c4)cc3n2)CC1 [compound 152] |  |  |  |  |  |  | < 1 µM | < 0.1 µM | < 10 µM |  | < 0.1 µM | < 10 µM
Nc1nc2cccc(-c3ccc4nccc(-c5ccncc5)c4c3)c2o1 [compound 15] | < 0.1 µM |  |  |  |  |  | < 1 µM | < 0.1 µM | < 1 µM |  | < 0.1 µM | 
CNC(=O)N1CCN(c2cnc3ccc(-c4ccc5oc(N)nc5c4)cc3n2)CC1 [compound 154] |  |  |  |  |  |  | < 0.1 µM | < 0.1 µM | < 10 µM |  | < 1 µM | < 1 µM

— patent US11547697B2, “Heterocyclic compounds and uses thereof” (MILLENNIUM PHARMACEUTICALS, INC., priority 2009, dated 2023)
